Laboratory results reported in patent US7425218B2, “Nitric oxide-releasing medical devices” (The United States of America as represented by the …, priority 1992, dated 2008).
Counter-ions that a name gives are not always drawn.

Test: decomposition and nitric oxide production at pH 7 and 25° C.
Format: physicochemical
Conditions: for half-life of decomposition: for the carbethoxy compound based on loss of the 252-nm chromophore in the UV spectrum
Description: The analysis of NO adducts, i.e., polymers containing the nitric oxide-releasing N2O2^− functional group, was done on a nitric oxide analyzer and was patterned after the procedure of Maragos et al., J. Med. Chem., 34, 3242-3247 (1991). A reactor vessel fitted with a septum was charged with a small aliquot of the polymer to be studied and the system was purged with helium for several minutes to remove traces of oxygen. […]
To a solution of 510 mg (1.97 mmol) of 1-(N-acetyl-L-methionyl)piperazine in 1 ml of methanol was added 428 μl (1.97 mmol) of 25% sodium methoxide in methanol. The system was degassed and charged with 40 psi of nitric oxide. After exposure of the solution to NO for 120 h, the pressure was released and the solid product was collected by filtration, washed with ether, and dried to give 27 mg of 1-[4-(N-acetyl-L-methionyl)piperazin-l-yl]-1-oxo-2-hydroxydiazene, sodium salt, as a white solid: UV λmax (ε) 252 nm (12.0 mM^−1 cm^−1).
A solution of 20 g (0.126 mol) of ethyl 1-piperazinecarboxylate in 60 ml of methanol was placed in a Parr bottle. The solution was treated with 27.4 ml (0.126 mol) of 25% sodium methoxide in methanol. The system was evacuated, charged with 40 psi of nitric oxide and kept at 25° C. for 48 h. The white crystalline product was collected by filtration and washed with cold methanol as well as with copious amounts of ether. The product was dried under vacuum to give a 14.5 g (48%) yield of 1-(4-carbethoxypiperazin-1-yl)-1-oxo-2-hydroxydiazene, sodium salt: mp 184-5° C.; UV (0.01 M NaOH) λmax (ε) 252 nm (10.4 mM^−1 cm^−1); NMR (D2O) δ 1.25 (t, 3 H), 3.11 (m, 2 H), 3.68 (m, 2 H), 4.15 (q, 2 H). Anal Calcd. for C6H13N4O4Na: C, 35.00%; H, 5.42%; N, 23.33%; Na, 9.58%. Found: C, 34.87%; H, 5.53%; N, 23.26%; Na, 9.69%. The half-life of this compound at pH 7 and 25° C. was 5 min. This measurement was based on the loss of the 252-nm chromophore in the ultraviolet spectrum.

Row | half-life of decomposition [min] | moles of NO produced per mole of test agent | Compound
1 | 5 | – | CCOC(=O)N1CCN([N+]([O-])=N[O-])CC1.[Na+] [1-(4-carbethoxypiperazin-1-yl)-1-oxo-2-hydroxydiazene, sodium salt]
2 | 6.9 | 1.72 moles of NO per mole of test agent | CSCC[C@H](NC(C)=O)C(=O)N1CCN([N+]([O-])=NO)CC1 [1-[4-(N-acetyl-L-methionyl)piperazin-l-yl]-1-oxo-2-hydroxydiazene, sodium salt]
